# Bridge positions count the residues as written; N and C are the ends. Square brackets hold non-standard residues; d marks the D form. Peptide text beside a SMILES is read from it. * marks the point of attachment. DOTA = O=C(O)CN1CCN(CC(=O)O)CCN(CC(=O)*)CCN(CC(=O)O)CC1; 1Nal = N[C@@H](Cc1cccc2ccccc12)C(=O)O; 2Nal = N[C@@H](Cc1ccc2ccccc2c1)C(=O)O; Ala(4-THP) = N[C@@H](CC1CCOCC1)C(=O)O; Gly(4-THP) = N[C@H](C(=O)O)C1CCOCC1; Gly(cPent) = N[C@H](C(=O)O)C1CCCC1; Ala(cPr) = N[C@@H](CC1CC1)C(=O)O; 3Pal = N[C@@H](Cc1cccnc1)C(=O)O; 4Pal = N[C@@H](Cc1ccncc1)C(=O)O; Chg = N[C@H](C(=O)O)C1CCCCC1; Tle = CC(C)(C)[C@H](N)C(=O)O; αMeP = C[C@@]1(C(=O)O)CCCN1
# Molecular target: T1, human DLL3 (Homo sapiens, UniProt Q9NYJ7)
# T1 construct: biotin (biotinylated)
# T1 sequence (Q9NYJ7 27-618): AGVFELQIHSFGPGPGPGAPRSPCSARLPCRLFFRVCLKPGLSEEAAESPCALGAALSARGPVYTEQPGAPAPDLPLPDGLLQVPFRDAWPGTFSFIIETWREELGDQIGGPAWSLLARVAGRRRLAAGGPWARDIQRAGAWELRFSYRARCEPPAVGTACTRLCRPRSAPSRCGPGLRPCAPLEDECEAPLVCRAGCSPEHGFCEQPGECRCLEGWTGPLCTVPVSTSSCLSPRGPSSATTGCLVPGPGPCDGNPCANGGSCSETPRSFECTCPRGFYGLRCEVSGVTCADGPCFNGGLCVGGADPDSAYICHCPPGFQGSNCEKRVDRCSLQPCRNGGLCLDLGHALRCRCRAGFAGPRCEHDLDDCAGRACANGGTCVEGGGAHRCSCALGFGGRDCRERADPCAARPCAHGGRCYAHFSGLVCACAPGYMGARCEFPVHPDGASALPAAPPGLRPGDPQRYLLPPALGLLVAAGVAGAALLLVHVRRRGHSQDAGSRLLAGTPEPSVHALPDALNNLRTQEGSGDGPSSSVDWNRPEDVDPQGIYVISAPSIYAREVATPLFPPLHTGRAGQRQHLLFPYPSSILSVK
# Assay: Affinity determination by Surface Plasmon Resonance (SPR), Biacore, 1:1 binding model
# Settings: biotinylated human DLL3 on streptavidin chip, 25° C.; NB = nonbinding
# Summary of the method: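 SPR with biotinylated human DLL3 captured on a streptavidin chip, with a reference surface subtracted. Samples were injected at several concentrations at 100 μL/min in phosphate buffer with 137 mM NaCl, 2.7 mM KCl, 0.05% P20 and 2% DMSO. Kinetic and affinity constants came from a 1:1 binding fit.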
row,Kd,Compound
1,1.05 nM,"CC(=O)N[C@H](CO)C(=O)N[C@@H](CC(=O)O)C(=O)N[C@H]1CSSC[C@@H](C(=O)N2CCC[C@@]2(C)C(=O)N[C@@H](Cc2ccccc2)C(=O)N[C@@H](CC(=O)O)C(=O)N[C@H](CCCCNC(=O)CN2CCN(CC(=O)O)CCN(CC(=O)O)CCN(CC(=O)O)CC2)C(N)=O)NC(=O)[C@H](CC(N)=O)NC(=O)[C@H](Cc2c[nH]c3ccccc23)NC(=O)[C@H](CCC(N)=O)NC(=O)[C@H](C2CCCCC2)NC(=O)[C@H](Cc2cccc3ccccc23)NC1=O [compound 138, Ac-(D-Ser)-D-C(3)-(1Nal)-(Chg)-Q-W-N-C(3)-(aMe-P)-F-D-D-Lys(DOTA)-CONH2] (Ac-[dS]DC[1Nal][Chg]QWNC[αMeP]FD[dK](DOTA)-NH2; disulfide 3-9)"
2,> 30 nM,"CC(=O)N[C@H](CO)C(=O)N[C@@H](CC(=O)O)C(=O)N[C@H]1CSSC[C@@H](C(=O)N2CCC[C@@]2(C)C(=O)N[C@@H](Cc2ccccc2)C(=O)N[C@@H](CC(=O)O)C(=O)N[C@H](CCCCNC(=O)CN2CCN(CC(=O)O)CCN(CC(=O)O)CCN(CC(=O)O)CC2)C(N)=O)NC(=O)[C@H](CC(N)=O)NC(=O)[C@H](Cc2c[nH]c3ccccc23)NC(=O)[C@H](CCC(N)=O)NC(=O)[C@@H](CC(C)C)NC(=O)[C@H](Cc2cccc3ccccc23)NC1=O [compound 139, Ac-(D-Ser)-D-C(3)-(1Nal)-(D-Leu)-Q-W-N-C(3)-(aMe-P)-F-D-D-Lys(DOTA)-CONH2] (Ac-[dS]DC[1Nal][dL]QWNC[αMeP]FD[dK](DOTA)-NH2; disulfide 3-9)"
3,1.5 nM,"CC(=O)N[C@H](CO)C(=O)N[C@@H](CC(=O)O)C(=O)N[C@H]1CSSC[C@@H](C(=O)N2CCC[C@@]2(C)C(=O)N[C@@H](Cc2ccccc2)C(=O)N[C@@H](CC(=O)O)C(=O)N[C@H](CCCCNC(=O)CN2CCN(CC(=O)O)CCN(CC(=O)O)CCN(CC(=O)O)CC2)C(N)=O)NC(=O)[C@H](CC(N)=O)NC(=O)[C@H](Cc2c[nH]c3ccccc23)NC(=O)[C@H](CCC(N)=O)NC(=O)[C@H](CC2CC2)NC(=O)[C@H](Cc2cccc3ccccc23)NC1=O [compound 140, Ac-(D-Ser)-D-C(3)-(1Nal)-(cPrA)-Q-W-N-C(3)-(aMe-P)-F-D-D-Lys(DOTA)-CONH2] (Ac-[dS]DC[1Nal][Ala(cPr)]QWNC[αMeP]FD[dK](DOTA)-NH2; disulfide 3-9)"
4,1.18 nM,"CC(=O)N[C@H](CO)C(=O)N[C@@H](CC(=O)O)C(=O)N[C@H]1CSSC[C@@H](C(=O)N2CCC[C@@]2(C)C(=O)N[C@@H](Cc2ccccc2)C(=O)N[C@@H](CC(=O)O)C(=O)N[C@H](CCCCNC(=O)CN2CCN(CC(=O)O)CCN(CC(=O)O)CCN(CC(=O)O)CC2)C(N)=O)NC(=O)[C@H](CC(N)=O)NC(=O)[C@H](Cc2c[nH]c3ccccc23)NC(=O)[C@H](CCC(N)=O)NC(=O)[C@H](C2CCCC2)NC(=O)[C@H](Cc2cccc3ccccc23)NC1=O [compound 141, Ac-(D-Ser)-D-C(3)-(1Nal)-(cPenG)-Q-W-N-C(3)-(aMe-P)-F-D-D-Lys(DOTA)-CONH2] (Ac-[dS]DC[1Nal][Gly(cPent)]QWNC[αMeP]FD[dK](DOTA)-NH2; disulfide 3-9)"
5,20.2 nM,"CC(=O)N[C@H](C(=O)N[C@@H](CCCCNC(=O)CN1CCN(CC(=O)O)CCN(CC(=O)O)CCN(CC(=O)O)CC1)C(=O)N[C@@H](CC(=O)O)C(=O)N[C@H]1CSSC[C@@H](C(=O)N2CCC[C@@]2(C)C(=O)N[C@@H](Cc2ccccc2)C(=O)N[C@@H](CC(=O)O)C(N)=O)NC(=O)[C@H](CC(N)=O)NC(=O)[C@H](Cc2c[nH]c3ccccc23)NC(=O)[C@H](CCC(N)=O)NC(=O)[C@H](CC(C)C)NC(=O)[C@H](Cc2cccc3ccccc23)NC1=O)C1CCCCC1 [compound 142, Ac-(Chg)-[L-Lys(DOTA)]-D-C(3)-(1Nal)-L-Q-W-N-C(3)-(aMe-P)-F-D-CONH2] (Ac-[Chg]K(DOTA)DC[1Nal]LQWNC[αMeP]FD-NH2; disulfide 4-10)"

# The remaining lines, values behind:
row,Compound,Kd
1,"CC(=O)N[C@H](C(=O)N[C@@H](CO)C(=O)N[C@@H](CC(=O)O)C(=O)N[C@H]1CSSC[C@@H](C(=O)N2CCC[C@@]2(C)C(=O)N[C@@H](Cc2ccccc2)C(=O)N[C@@H](CC(=O)O)C(=O)N[C@H](CCCCNC(=O)CN2CCN(CC(=O)O)CCN(CC(=O)O)CCN(CC(=O)O)CC2)C(N)=O)NC(=O)[C@H](CC(N)=O)NC(=O)[C@H](Cc2ccc3ccccc3c2)NC(=O)[C@H](CCC(N)=O)NC(=O)[C@H](C(C)(C)C)NC(=O)[C@H](Cc2cccc3ccccc23)NC1=O)C1CCCCC1 [compound 131, Ac-(Chg)-S-D-C(3)-(1Nal)-(D-Leu)-Q-(2Nal)-N-C(3)-(aMe-P)-F-D-D-Lys(DOTA)-CONH2] (Ac-[Chg]SDC[1Nal][Tle]Q[2Nal]NC[αMeP]FD[dK](DOTA)-NH2; disulfide 4-10)",0.95 nM
2,"CC(=O)N[C@H](C(=O)N[C@@H](CO)C(=O)N[C@@H](CC(=O)O)C(=O)N[C@H]1CSSC[C@@H](C(=O)N2CCC[C@@]2(C)C(=O)N[C@@H](Cc2ccccc2)C(=O)N[C@@H](CC(=O)O)C(=O)N[C@H](CCCCNC(=O)CN2CCN(CC(=O)O)CCN(CC(=O)O)CCN(CC(=O)O)CC2)C(N)=O)NC(=O)[C@H](CC(N)=O)NC(=O)[C@H](Cc2c[nH]c3ccccc23)NC(=O)[C@H](CC2CCOCC2)NC(=O)[C@H](CC(C)C)NC(=O)[C@H](Cc2cccc3ccccc23)NC1=O)C1CCCCC1 [compound 132, Ac-(Chg)-S-D-C(3)-(1Nal)-L-(THPA)-W-N-C(3)-(aMe-P)-F-D-[D-Lys(DOTA)]-NH2] (Ac-[Chg]SDC[1Nal]L[Ala(4-THP)]WNC[αMeP]FD[dK](DOTA)-NH2; disulfide 4-10)",0.21 nM
3,"CC(=O)N[C@H](C(=O)N[C@@H](CO)C(=O)N[C@@H](CC(=O)O)C(=O)N[C@H]1CSSC[C@@H](C(=O)N2CCC[C@@]2(C)C(=O)N[C@@H](Cc2ccccc2)C(=O)N[C@@H](CC(=O)O)C(=O)N[C@H](CCCCNC(=O)CN2CCN(CC(=O)O)CCN(CC(=O)O)CCN(CC(=O)O)CC2)C(N)=O)NC(=O)[C@H](CC(N)=O)NC(=O)[C@H](Cc2c[nH]c3ccccc23)NC(=O)[C@H](C2CCOCC2)NC(=O)[C@H](CC(C)C)NC(=O)[C@H](Cc2cccc3ccccc23)NC1=O)C1CCCCC1 [compound 133, Ac-(Chg)-S-D-C(3)-(1Nal)-L-(THPG)-W-N-C(3)-(aMe-P)-F-D-[D-Lys(DOTA)]-NH2] (Ac-[Chg]SDC[1Nal]L[Gly(4-THP)]WNC[αMeP]FD[dK](DOTA)-NH2; disulfide 4-10)",> 30 nM
4,"CC(=O)N[C@H](C(=O)N[C@@H](CO)C(=O)N[C@@H](CC(=O)O)C(=O)N[C@H]1CSSC[C@@H](C(=O)N2CCC[C@@]2(C)C(=O)N[C@@H](Cc2ccccc2)C(=O)N[C@@H](CC(=O)O)C(=O)N[C@H](CCCCNC(=O)CN2CCN(CC(=O)O)CCN(CC(=O)O)CCN(CC(=O)O)CC2)C(N)=O)NC(=O)[C@H](CC2CCOCC2)NC(=O)[C@H](Cc2c[nH]c3ccccc23)NC(=O)[C@H](CCC(N)=O)NC(=O)[C@H](CC(C)C)NC(=O)[C@H](Cc2cccc3ccccc23)NC1=O)C1CCCCC1 [compound 134, Ac-(Chg)-S-D-C(3)-(1Nal)-L-Q-W-(THPA)-C(3)-(aMe-P)-F-D-[D-Lys(DOTA)]-NH2] (Ac-[Chg]SDC[1Nal]LQW[Ala(4-THP)]C[αMeP]FD[dK](DOTA)-NH2; disulfide 4-10)",3.52 nM
5,"CC(=O)N[C@H](C(=O)N[C@@H](CO)C(=O)N[C@@H](CC(=O)O)C(=O)N[C@H]1CSSC[C@@H](C(=O)N2CCC[C@@]2(C)C(=O)N[C@@H](Cc2ccccc2)C(=O)N[C@@H](CC(=O)O)C(=O)N[C@H](CCCCNC(=O)CN2CCN(CC(=O)O)CCN(CC(=O)O)CCN(CC(=O)O)CC2)C(N)=O)NC(=O)[C@H](C2CCOCC2)NC(=O)[C@H](Cc2c[nH]c3ccccc23)NC(=O)[C@H](CCC(N)=O)NC(=O)[C@H](CC(C)C)NC(=O)[C@H](Cc2cccc3ccccc23)NC1=O)C1CCCCC1 [compound 135, Ac-(Chg)-S-D-C(3)-(1Nal)-L-Q-W-(THPG)-C(3)-(aMe-P)-F-D-[D-Lys(DOTA)]-NH2] (Ac-[Chg]SDC[1Nal]LQW[Gly(4-THP)]C[αMeP]FD[dK](DOTA)-NH2; disulfide 4-10)",> 30 nM
6,"CC(=O)N[C@H](C(=O)N[C@@H](CO)C(=O)N[C@@H](CC(=O)O)C(=O)N[C@H]1CSSC[C@@H](C(=O)N2CCC[C@@]2(C)C(=O)N[C@@H](Cc2cccnc2)C(=O)N[C@@H](CC(=O)O)C(=O)N[C@H](CCCCNC(=O)CN2CCN(CC(=O)O)CCN(CC(=O)O)CCN(CC(=O)O)CC2)C(N)=O)NC(=O)[C@H](CC(N)=O)NC(=O)[C@H](Cc2c[nH]c3ccccc23)NC(=O)[C@H](CCC(N)=O)NC(=O)[C@H](CC(C)C)NC(=O)[C@H](Cc2cccc3ccccc23)NC1=O)C1CCCCC1 [compound 136, Ac-(Chg)-S-D-C(3)-(1Nal)-L-Q-W-N-C(3)-(aMe-P)-(3Pya)-D-[D-Lys(DOTA)]-NH2] (Ac-[Chg]SDC[1Nal]LQWNC[αMeP][3Pal]D[dK](DOTA)-NH2; disulfide 4-10)",21.7 nM
7,"CC(=O)N[C@H](C(=O)N[C@@H](CO)C(=O)N[C@@H](CC(=O)O)C(=O)N[C@H]1CSSC[C@@H](C(=O)N2CCC[C@@]2(C)C(=O)N[C@@H](Cc2ccncc2)C(=O)N[C@@H](CC(=O)O)C(=O)N[C@H](CCCCNC(=O)CN2CCN(CC(=O)O)CCN(CC(=O)O)CCN(CC(=O)O)CC2)C(N)=O)NC(=O)[C@H](CC(N)=O)NC(=O)[C@H](Cc2c[nH]c3ccccc23)NC(=O)[C@H](CCC(N)=O)NC(=O)[C@H](CC(C)C)NC(=O)[C@H](Cc2cccc3ccccc23)NC1=O)C1CCCCC1 [compound 137, Ac-(Chg)-S-D-C(3)-(1Nal)-L-Q-W-N-C(3)-(aMe-P)-(4Pya)-D-[D-Lys(DOTA)]-NH2] (Ac-[Chg]SDC[1Nal]LQWNC[αMeP][4Pal]D[dK](DOTA)-NH2; disulfide 4-10)",> 30 nM
